Results from patent US11174242B2, “Heteroaryl compounds and their use” (Minoryx Therapeutics S.L., priority 2016, dated 2021).
Positions count from the first letter of the chain named.

Columns and labels:
[1] = target: T1, β-glucocerebrosidase, p.L444P mutation (GM08760A fibroblasts) (Homo sapiens, UniProt P04062, L483P); assay: Enhancement of β-glucocerebrosidase activity measured in Gaucher disease fibroblasts (L444P); assay type: cell-based; details: increase in enzyme activity vs non-treated cells, GBA fibroblasts bearing L444P
T1 construct: host or cells: human Gaucher patient fibroblasts GM08760A, homozygous L444P
T1 sequence (P04062 40-536 L483P): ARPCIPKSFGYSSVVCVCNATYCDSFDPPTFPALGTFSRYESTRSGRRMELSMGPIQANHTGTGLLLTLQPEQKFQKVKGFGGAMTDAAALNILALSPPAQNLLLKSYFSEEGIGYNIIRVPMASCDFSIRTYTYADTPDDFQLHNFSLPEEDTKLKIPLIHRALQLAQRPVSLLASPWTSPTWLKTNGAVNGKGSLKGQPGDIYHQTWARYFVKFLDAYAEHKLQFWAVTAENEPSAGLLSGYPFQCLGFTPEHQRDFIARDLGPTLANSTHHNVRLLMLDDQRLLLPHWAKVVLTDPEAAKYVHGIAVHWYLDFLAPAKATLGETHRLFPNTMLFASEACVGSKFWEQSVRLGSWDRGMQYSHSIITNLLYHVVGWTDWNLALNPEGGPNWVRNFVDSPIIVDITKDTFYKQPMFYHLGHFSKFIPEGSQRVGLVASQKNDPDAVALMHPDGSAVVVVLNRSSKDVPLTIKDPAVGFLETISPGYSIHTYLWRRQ
Experimental: Enhancement of β-Glucocerebrosidase Activity Measured in Gaucher Disease Fibroblasts Materials
Human fibroblasts from a patient with Gaucher disease homozygous for p.L444P mutation (GM08760A) were purchased from Coriell Institute for Medical Research (Camden, N.J., USA).
(§1) Fibroblasts were seeded at 5×10^3 cells per well in 96-well cell culture plates (Corning, N.Y., USA) in Dulbecco's Modified Eagle's Media (DMEM) supplemented with 10% of fetal bovine serum (FBS), 1% penicillin/streptomycin (P/S) (Thermo Fisher Scientific, Waltham, Mass., USA) and grown at 37° C., 5% CO2 overnight for cell attachment. Subsequently, cells were incubated in the absence or presence of the compounds at the desired concentration for 4 days. After incubation, cells were washed twice with phosphate-buffered saline (PBS) and enzyme activity assay was performed.
(§2) β-glucocerebrosidase activity in intact cultured cells was measured by using 4-methylumbelliferyl-β-D-glucopyranoside substrate (Apollo Scientific, UK). Briefly, cells were incubated with 4-MU-β-D-glucopyranoside in 0.1 M acetate buffer pH=4 at 37° C. for 1 hour. […] The liberated 4-MU was measured on a GloMax Discover plate reader (Promega, Madison, Wis., USA) with and excitation at 340 nm and emission at 460 nm. Enzyme activities were expressed in treated cells as X-fold increase in comparison with non-treated cells (X=1 represents no enhancement).
The capacity of the compounds of the disclosure to produce an increase in enzyme activity in GBA fibroblasts bearing L444P at concentrations between 6 and 50 μM is denoted as follows:
(§3) The following compounds listed in Table 2 were purchased (from Enamine, Princeton, Asinex, Vistas-M, and OSSK_541352) and tested in the assay as described above.

[2] = target: T2, β-glucocerebrosidase Wild Type (WT) (Homo sapiens, UniProt P04062); assay: β-glucocerebrosidase activity enhancement, Wild Type (WT); assay type: cell-based; details: increase in enzyme activity vs non-treated cells; for Activity WT: commercially available compounds
T2 construct: endogenous in cells
T2 sequence (P04062 40-536): T1 sequence (P04062 40-536 L483P) with P444L
Experimental: as §1, §2, §3

[3] = commercially available compounds, 6-50 μM, 4 days
[4] = concentrations between 6 and 50 μM, 4 days incubation

## CCc1ccc(CN(C)Cc2nc(N)nc(Nc3ccc(C)cc3)n2)cc1 [6-(((4-ethylbenzyl)(methyl)amino)methyl)-N2-(p-tolyl)-1,3,5-triazine-2,4-diamine]
[1]; [3]
  Activity L444P: C (Increase in comparison with non-treated of 1.2-1.7 fold is shown as C)
[2]
  Activity WT: B (Increase in comparison with non-treated of >1.7-2.0 fold is shown as B)

## CN(Cc1ccccc1)Cc1cc(Nc2ccc(C#N)cc2)nc(N)n1 [Example 19, 4-(2-amino-6-((benzyl(methyl)amino)methyl)pyrimidin-4-ylamino)benzonitrile]
[1]; [4]
  Activity L444P: B (Increase in comparison with non-treated of >1.7-2.0 fold is shown as B)
[2]
  Activity Wild Type (WT): B (Increase in comparison with non-treated of >1.7-2.0 fold is shown as B)

## COc1ccc(CN(C)Cc2cc(Nc3ccc(C)cc3)nc(N)n2)cc1 [Example 33, 6-(((4-Methoxybenzyl)(methyl)amino)methyl)-N^4-p-tolylpyrimidine-2,4-diamine]
[1]; [4]
  Activity L444P: B (Increase in comparison with non-treated of >1.7-2.0 fold is shown as B)
[2]
  Activity Wild Type (WT): B (Increase in comparison with non-treated of >1.7-2.0 fold is shown as B)

## COc1cccc(N2CCN(Cc3nc(N)nc(NCc4ccccc4)n3)CC2)c1 [N2-benzyl-6-((4-(3-methoxyphenyl)piperazin-1-yl)methyl)-1,3,5-triazine-2,4-diamine]
[1]; [3]
  Activity L444P: C (Increase in comparison with non-treated of 1.2-1.7 fold is shown as C)
[2]
  Activity WT: C (Increase in comparison with non-treated of 1.2-1.7 fold is shown as C)

## Nc1nc(CN2Cc3ccccc3C2)nc(Nc2ccc(F)cc2)n1 [N2-(4-fluorophenyl)-6-(isoindolin-2-ylmethyl)-1,3,5-triazine-2,4-diamine]
[1]; [3]
  Activity L444P: B (Increase in comparison with non-treated of >1.7-2.0 fold is shown as B)
[2]
  Activity WT: C (Increase in comparison with non-treated of 1.2-1.7 fold is shown as C)

## COc1ccc(Nc2cc(CN(C)Cc3ccccc3)nc(N)n2)cc1 [Example 18, 6-((benzyl(methyl)amino)methyl)-N^4-(4-methoxyphenyl)pyrimidine-2,4-diamine]
[1]; [4]
  Activity L444P: B (Increase in comparison with non-treated of >1.7-2.0 fold is shown as B)
[2]
  Activity Wild Type (WT): B (Increase in comparison with non-treated of >1.7-2.0 fold is shown as B)

## CN(Cc1ccccc1)Cc1cc(Nc2ccc3ccncc3c2)nc(N)n1 [Example 30, 6-((Benzyl(methyl)amino)methyl)-N^4-(isoquinolin-7-yl)pyrimidine-2,4-diamine]
[1]; [4]
  Activity L444P: A (Increase in comparison with non-treated of >2.0 fold is shown as A)
[2]
  Activity Wild Type (WT): B (Increase in comparison with non-treated of >1.7-2.0 fold is shown as B)

## CN(Cc1ccccc1)Cc1nc(N)nc(Nc2cccnc2)n1 [Example 26, 6-((Benzyl(methyl)amino)methyl)-N^2-(pyridin-3-yl)-1,3,5-triazine-2,4-diamine]
[1]; [4]
  Activity L444P: C (Increase in comparison with non-treated of 1.2-1.7 fold is shown as C)
[2]
  Activity Wild Type (WT): B (Increase in comparison with non-treated of >1.7-2.0 fold is shown as B)

## COc1cccc(Nc2cc(CN3CCCC3c3ccccc3)nc(N)n2)c1 (stereo not drawn) [Example 50]
[1]; [4]
  Activity L444P: C (Increase in comparison with non-treated of 1.2-1.7 fold is shown as C)
[2]
  Activity Wild Type (WT): C (Increase in comparison with non-treated of 1.2-1.7 fold is shown as C)

## Cc1ccc(Nc2nc(N)nc(CN(C)c3ccc4ccccc4c3)n2)cc1 [6-((methyl(naphthalen-2-yl)amino)methyl)-N2-(p-tolyl)-1,3,5-triazine-2,4-diamine]
[1]; [3]
  Activity L444P: A (Increase in comparison with non-treated of >2.0 fold is shown as A)
[2]
  Activity WT: C (Increase in comparison with non-treated of 1.2-1.7 fold is shown as C)

## Cc1ccc(Nc2cc(CN3CCCc4ccccc43)nc(N)n2)cc1 [Example 14, 6-((3,4-Dihydroquinolin-1(2H)-yl)methyl)-N^4-(p-tolyl)pyrimidine-2,4-diamine]
[1]; [4]
  Activity L444P: C (Increase in comparison with non-treated of 1.2-1.7 fold is shown as C)
[2]
  Activity Wild Type (WT): B (Increase in comparison with non-treated of >1.7-2.0 fold is shown as B)

## Cc1ccc(Nc2cc(CN(C)Cc3ccccc3)nc(N)n2)cc1 [Example 52, 6-((Benzyl(methyl)amino)methyl)-N^4-p-tolylpyrimidine-2,4-diamine]
[1]; [4]
  Activity L444P: C (Increase in comparison with non-treated of 1.2-1.7 fold is shown as C)
[2]
  Activity Wild Type (WT): C (Increase in comparison with non-treated of 1.2-1.7 fold is shown as C)

## CCN(Cc1ccccc1)C(C)c1nc(N)nc(Nc2ccccc2)n1 (stereo not drawn) [6-(1-(benzyl(ethyl)amino)ethyl)-N2-phenyl-1,3,5-triazine-2,4-diamine]
[1]; [3]
  Activity L444P: B (Increase in comparison with non-treated of >1.7-2.0 fold is shown as B)
[2]
  Activity WT: B (Increase in comparison with non-treated of >1.7-2.0 fold is shown as B)

## COc1cccc(Nc2cc(CN(C)Cc3ccc(F)cc3)nc(N)n2)c1 [Example 45, 6-(((4-Fluorobenzyl)(methyl)amino)methyl)-N^4-(3-methoxyphenyl)pyrimidine-2,4-diamine]
[1]; [4]
  Activity L444P: C (Increase in comparison with non-treated of 1.2-1.7 fold is shown as C)
[2]
  Activity Wild Type (WT): C (Increase in comparison with non-treated of 1.2-1.7 fold is shown as C)

## COc1ccccc1Nc1nc(N)nc(CN(C)Cc2ccccc2)n1 [Example 10, 6-((Benzyl (methyl)amino)methyl)-N^2-(2-methoxyphenyl)-1,3,5-triazine-2,4-diamine]
[1]; [4]
  Activity L444P: C (Increase in comparison with non-treated of 1.2-1.7 fold is shown as C)
[2]
  Activity Wild Type (WT): B (Increase in comparison with non-treated of >1.7-2.0 fold is shown as B)

## COc1ccc(CN(C)Cc2cc(Nc3cccc(C)c3)nc(N)n2)cc1 [Example 47, 6-(((4-Methoxybenzyl)(methyl)amino)methyl)-N^4-m-tolylpyrimidine-2,4-diamine]
[1]; [4]
  Activity L444P: C (Increase in comparison with non-treated of 1.2-1.7 fold is shown as C)
[2]
  Activity Wild Type (WT): C (Increase in comparison with non-treated of 1.2-1.7 fold is shown as C)

## Nc1nc(CN2CCN(c3cccc(Cl)c3)CC2)nc(Nc2ccc3c(c2)OCCO3)n1 [6-((4-(3-chlorophenyl)piperazin-1-yl)methyl)-N2-(2,3-dihydrobenzo[b][1,4]dioxin-6-yl)-1,3,5-triazine-2,4-diamine]
[1]; [3]
  Activity L444P: B (Increase in comparison with non-treated of >1.7-2.0 fold is shown as B)
[2]
  Activity WT: C (Increase in comparison with non-treated of 1.2-1.7 fold is shown as C)

## CN(Cc1ccccc1)Cc1nc(N)nc(Nc2cccc(C#N)c2)n1 [Example 12, 3-(4-Amino-6-((benzyl(methyl)amino)methyl)-1,3,5-triazin-2-ylamino)benzonitrile]
[1]; [4]
  Activity L444P: C (Increase in comparison with non-treated of 1.2-1.7 fold is shown as C)
[2]
  Activity Wild Type (WT): B (Increase in comparison with non-treated of >1.7-2.0 fold is shown as B)
